Patent US20260325473A1, “N-Beta-Hydroxybutyryl-Amino Acids and Related Compositions and Methods” (The Board of Trustees of the Leland Stanford Junior …, priority 2023, published 2026)

Legend:
HMGCL [1] = conditions: fasting (24 h) or ketogenic diet (2 days); Goldberg et al.; cited from earlier work
[2] = Keto-Med study, plasma metabolites; assay type: in vivo; conditions: human; 4 weeks WFKD vs baseline
Description: (§1) Targeted metabolomics. Targeted measurements were performed using an Agilent 6470 triple quadrupole LC-MS instrument. MS analysis was performed using AJS in negative mode. The AJS source parameters were set as follows: the dry gas temperature was set at 250° C. with a gas flow of 12 l/min and the nebulizer pressure at 25 psi; the sheath gas temperature was set to 300° C. with the sheath gas flow set at 12 l/min; and the capillary voltage was set to 3,500 V. Separation of polar metabolites was performed as described above in the ‘Untargeted measurements of metabolites by LC-MS’ section. Multiple reaction monitoring was performed for the indicated metabolites with the listed dwell times, fragmentor voltage, collision energies, cell accelerator voltages and polarities. Quantification of the endogenous metabolite concentrations were performed by generating a standard curve with known concentrations of each metabolite. Metabolite standards were analyzed alongside the plasma samples using the same targeted triple quadrupole LC/MS method. A calibration standard curve generated from the metabolite standard concentrations and total peak areas were used to calculate the concentrations of each endogenous metabolite. The dilution of the plasma during the sample preparation was also taken into account for the quantification.
Keto-Med study. Keto-Med was a single-site, randomized, crossover, interventional trial comparing 2 metabolically distinct diets (well-formulated ketogenic diet, WFKD; and Mediterranean-plus diet, Med-Plus) among individuals with prediabetes and T2DM. Forty participants aged ≥18 years with prediabetes or T2DM followed the WFKD and the Med-Plus for 12 weeks each, in random order. Participants were randomly assigned into 1 of 2 different diet sequences: WFKD for 12 weeks (phase 1) and then the Med-Plus for 12 weeks (phase 2), or the opposite order. Ad libitum intake was advised, and participants were guided to follow 2 sets of dietary guidelines that shared 3 important similarities (incorporating nonstarchy vegetables and avoiding added sugars and refined grains) and 3 important differences (incorporating compared with avoiding legumes, fruits, and whole, intact grains). During the WFKD phase, participants were counseled to sustain nutritional ketosis by limiting carbohydrates to 20-50 g/day and keeping proteins to ~1.5 g/kg ideal body weight/day, with the remaining kcals coming from fats. Participants were also instructed to consume >3 servings/day of nonstarchy vegetables and maintain adequate mineral and fluid intake for the ketogenic state (sodium, 3-5 g/day; potassium, 3-4 g/day). […]

[3] = Human ketone ester supplementation study, plasma metabolites; assay type: in vivo; conditions: 0.3 g/kg ketone ester, 60 min
Description: as §1
Human ketone ester supplementation study. Following screening, eligible subjects participated in a randomized, counter-balanced, double-blind, placebo-controlled crossover trial comparing BHB supplementation versus placebo, separated by a minimum of 2 days (ClinicalTrials.gov ID NCT04194450). Pre-menopausal women were tested in the follicular phase (days 3-9). Participants were asked to refrain from structured exercise and alcohol, limit physical activity, and follow a standardized diet (~50% carbohydrate, ~30% fat, ~20% protein) on the day before each trial. After refraining from medication use for 24 hours, participants reported to the Exercise, Metabolism and Inflammation Laboratory at the University of British Columbia-Okanagan in an overnight fasted state. Anthropometric measurements were obtained prior to insertion of an indwelling intravenous catheter into the antecubital vein for repeated blood sampling. Blood was collected into EDTA tubes (BD, 367863) and immediately centrifuged at 2000 rpm for 15 min and the top layer of plasma was aliquoted and frozen at −80 °C. After baseline (0) blood sample collection, the oral BHB supplement or placebo was consumed in liquid form (~30-65 mL). The BHB supplement (H.V.M.N®, USA) in the form of the ketone monoester (R)-3-hydroxybutyl (R)-3-hydroxybutyrate (AG®, TDeltaS, Oxford, UK) contained 0.4 g mL-1 BHB, natural flavoring, and <2% stevia leaf extract. The taste-matched placebo drink contained the same natural flavoring as the ketone supplement, stevia leaf extract, 5 mL of Bittrex stock (0.005 g of denatonium benzoate powder in 40 ml of water) and 1.5 mL of arrowroot stock (2 g of arrowroot powder in 50 ml of water) to match the bitter flavor and viscosity of the ketone monoester. Supplements were dispensed into opaque 80 ml bottles with volume calculated for 0.3 g BHB/kg body weight and labelled either A or B by a third-party researcher. Blinding was maintained until completion of data collection and analyses.

CNDP2 = target: T1, CNDP2 (Mus musculus, UniProt Q9D1A2); assay type: in vivo; conditions: ketone ester drink or one week of ketogenic diet
T1 sequence (Q9D1A2 1-475): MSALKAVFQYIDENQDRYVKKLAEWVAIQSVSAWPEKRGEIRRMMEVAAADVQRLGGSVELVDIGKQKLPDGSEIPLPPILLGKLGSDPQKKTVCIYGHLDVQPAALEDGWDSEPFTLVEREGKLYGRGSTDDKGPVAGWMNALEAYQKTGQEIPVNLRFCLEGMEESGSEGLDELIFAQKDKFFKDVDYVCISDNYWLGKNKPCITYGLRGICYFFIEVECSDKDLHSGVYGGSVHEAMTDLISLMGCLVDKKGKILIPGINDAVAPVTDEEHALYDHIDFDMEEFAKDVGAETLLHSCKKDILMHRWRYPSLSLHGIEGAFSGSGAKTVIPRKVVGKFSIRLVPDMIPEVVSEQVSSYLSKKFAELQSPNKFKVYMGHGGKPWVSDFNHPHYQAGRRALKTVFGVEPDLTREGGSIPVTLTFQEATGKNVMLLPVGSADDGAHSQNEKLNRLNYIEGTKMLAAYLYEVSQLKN
Description: (§2) Preparation of plasma samples for LC-MS analysis. Plasma was collected from mice via a submandibular bleed into lithium heparin tubes (BD, 365985) and immediately transferred onto ice. The blood was centrifuged at 4° C. at 5000 rpm for 5 min and the top layer of plasma was aliquoted and frozen at −80 °C. To extract polar metabolites from plasma for LC-MS analysis, 150 μl of a 2:1 mixture of acetonitrile/methanol was added to 50 μl of plasma. The mixture was centrifuged at 4° C. for 10 min at 15,000 rpm and the supernatant was transferred to a LC-MS vial.
(§3) Targeted metabolomics. Targeted measurements were performed using an Agilent 6470 triple quadrupole LC-MS instrument. MS analysis was performed using AJS in negative mode. […] Quantification of the endogenous metabolite concentrations were performed by generating a standard curve with known concentrations of each metabolite. Metabolite standards were analyzed alongside the plasma samples using the same targeted triple quadrupole LC/MS method. […] The dilution of the plasma during the sample preparation was also taken into account for the quantification. […]

[4] = Metabolite quantitation in mouse plasma (QQQ-LC/MS); assay type: in vivo; conditions: 1 week ketogenic diet, 24 h fast, or ketone ester drink 3 g/kg
Description: as §2, §1

HMGCL [5] = assay: Plasma metabolites in Alb-Hmgcl (-/-) mice; assay type: in vivo, mouse; conditions: fasting or ketogenic diet
Description: as §2, §3

[6] = tested on: mouse tissue lysate proteins (brain, heart, quadriceps, liver); assay: X-Phe photoprobe crosslinking in mouse tissue lysates, in-gel fluorescence; assay type: binding; conditions: 100 μM, UV crosslinking
Description: In vitro crosslinking studies of X-Phe photoprobe. Tissues were collected from wild type C57BL/6J and homogenized using a bead blaster in PBS. The protein homogenate was filtered through a 40 μm strainer to remove any un-homogenized tissue and the lysate diluted to 2 mg/ml. Tissue lysate was incubated with 100 μM of the photoprobe and incubated on ice for 10 minutes protected from light. Reactions were then put under UV for 1 min on a UV Stratalinker. A TAMRA click reaction was performed by adding the following reagents to the indicated final concentrations: […], 1 mM CuSO4, 1 mM TCEP (freshly prepared), 25 μM TAMRA-N3. Reactions were allowed to proceed for 1 hour at room temp, protected from light. Loading buffer was added to the reactions, boiled for 10 minutes and run down a protein gel. The gel was imaged prior to staining with a coomassie dye.

CC(O)CC(=O)O (stereo not drawn) [BHB, beta-hydroxybutyrate, reference compound]
circulating BHB levels in Alb-Hmgcl (-/-) mice (HMGCL [1]): reductions in circulating BHB levels | elevation of plasma BHB on WFKD [2]: 5 fold | plasma BHB after ketone ester drink [3]: dramatically elevated | plasma BHB in CNDP2-KO vs WT mice (CNDP2): unchanged | plasma BHB levels [4]: elevated by each of these conditions

C[C@@H](O)CC(=O)N1CCC[C@H]1C(=O)O [Keto-Pro]
plasma level in Alb-Hmgcl (-/-) mice (HMGCL [5]): reduced in Alb-Hmgcl (−/−) mice | plasma keto amino acids in CNDP2-KO vs wild type mice (CNDP2): unaltered

C#CCCC(=O)N[C@@H](Cc1ccc(N=[N+]=[N-])cc1)C(=O)O [X-Phe photoprobe]
labelling of tissue proteins by photoprobe [6]: directly interacts with protein targets in a tissue-specific manner
